Earlier results on one molecule are cited in patent publication US7887847B2, “Nutritional supplement for treatment of ocular diseases” (priority 2004, dated 2011).

The data set concerns macular degeneration. The following applies: adults with the highest dietary intake compared with people with the lowest intake.

As for `CC1=C[C@H](O)CC(C)(C)[C@H]1/C=C/C(C)=C/C=C/C(C)=C/C=C/C=C(C)/C=C/C=C(C)/C=C/C1=C(C)C[C@@H](O)CC1(C)C` [lutein, Lutein], the “decreased risk of macular degeneration” value is on record as 57%.
